Data from US9067928B2 (Genentech, Inc., priority 2008, dated 2015).

Biological target: T1, Bcl-xL (Homo sapiens, UniProt Q07817)
T1 construct: made in house
Test: Alpha Screen Bcl-xL binding assay, competition with Bim26-mer
Details: values listed in the order of Table 1; read-out: Alphascreen results (IC50)
Protocol: The measurement of competition of compounds of the invention with Bim26-mer for a Bcl-2 family protein binding site using an Alpha Screen Bcl-xL Binding Assay:
The BH3 proteins ALPHASCREEN™ assay was used to identify active small molecules Bcl-2 family protein screen. e.g., Bcl-xL, hmMcl-1 screen. To determine an accurate estimation of the IC50, the compounds were routinely tested at starting concentrations, 100 μM and/or 1 μM and serially titrated 3 fold over 11 dilutions.
The beads come in close proximity when the protein and the peptides interact. Donor beads contain a photosensitiser that converts oxygen to an excited form of O2 at an excitation of 680 nm. Energy is transformed from the singlet oxygen and reacts with chemiluminescers on the acceptor bead, resulting in light emission at 520-620 nm. […] With this information, the IC50 of each compound was calculated
GST-Bcl-xL, GST-hmMcl-1 and biotinylated GST proteins were prepared in-house and were stored as stock solutions at −80° C. The biotinylated-Bak, and biotinylated-Bim peptides were purchased from Auspep and were stored as 500 μM stock solutions in 100% DMSO at −80° C. The ALPHASCREEN™ GST (Glutathione-S-Transferase) Detection Kit was obtained from Perkin Elmer Lifesciences (Cat #6760603R). The Proxiplates, white 384 well flat-Bottom plates were purchased from Interpath Services, Melbourne (Cat #784075). The seals to cover the plates were purchased from Proscience. Melbourne (Cat#784075). DMSO was purchased from AnalaR. The 384 deep well plates and the Polypropylene 50 μL, V bottom polypropylene compound plates were purchased from Matrical.
Compounds of the invention were prepared as 10 mM stocks with 100% DMSO on the day prior to performing the assay. […] To achieve a final compound concentration of 1 μM, in a separate matrical plate, 28 μL of 100% DMSO and 2 μL of 10 mM compound was added to a well, mixed well. 2 μL of this solution was taken and added to 38 μL of 100% DMSO. 20 μL of this solution was added to the test matrical plate. Several control compounds were included in the test plates. For the control wells 15 μL 100% DMSO only was added to the appropriate wells of each plate. The compound plates were then serially diluted 2 fold using the MiniTrak. Once titrations were complete, the compound plate was immediately covered with a foil seal to prevent evaporation.
The assay and bead buffers were prepared fresh. Each titrated compound plate was assayed in duplicate. The following volumes were sufficient to run 12 Proxiplates (4 assay plates run in duplicate in each of Bclxl, hmMcl and counter assays)
Protein and Peptide Preparation; and Assay Performance • 1. The assay and bead buffers were used to prepare the acceptor and donor solutions. ALPHASCREEN™ beads are light sensitive and therefore prepared in a darkened room. 2.5 μL of beads were added per 1 mL of buffer. • 2. The volume of protein or peptide to add was calculated using the following formula:
[formula] • C1=Final Concentration of protein/peptide • C2=Stock Concentration of protein/peptide • V1=Total Volume of Acceptor/Donor Solution • V2=Volume of stock protein/Peptide to add to Acceptor/Donor solution • 3. The assay components were prepared as separate Acceptor and Donor Solutions. The Acceptor Solution contained Acceptor heads and target protein, while the Donor Solution contained Donor beads and biotinylated peptide.
• 4. After the solutions were prepared, they were left to incubate for 30 minutes at room temperature to allow the beads to bind to the protein and the peptide. • 5. 50 μL of Bcl-xL solution, 50 μL of hmMcl-1 solution and 50 µL of biotinylated-GST were added into separate deep wells on an assay plate. A control […]. Assay/Bead buffer was added separate well plates (no protein). • 6.

T1 sequence (Q07817 whole entry, species assumed): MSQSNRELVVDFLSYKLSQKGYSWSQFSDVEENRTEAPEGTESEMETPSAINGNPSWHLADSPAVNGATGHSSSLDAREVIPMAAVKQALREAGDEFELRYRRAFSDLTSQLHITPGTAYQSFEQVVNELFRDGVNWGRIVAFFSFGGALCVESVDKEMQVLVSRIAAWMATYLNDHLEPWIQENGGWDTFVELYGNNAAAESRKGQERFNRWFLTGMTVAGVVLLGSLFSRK

IC50 [nM] | SMILES
5390 | CN1CCN(C(=O)Nc2nc3ccccc3s2)c2cc(-c3cccc(C(=O)O)n3)ccc21 [Example 3]
1440 | CC(C)COc1ccc(-c2ccc3c(c2)N(C(=O)Nc2nc4ccccc4s2)CCC3)nc1C(=O)O [Example 4]
2 | O=C(O)c1nc(-c2ccc3c(c2)N(C(=O)Nc2nc4ccccc4s2)CCC3)ccc1OCCOc1ccccc1 [Example 19]
5 | Nc1cccc(OCc2cccc(-c3ccc(-c4ccc5c(c4)N(C(=O)Nc4nc6ccccc6s4)CCC5)nc3C(=O)O)c2)c1 [Example 41]
10 | O=C(O)c1nc(-c2ccc3c(c2)N(C(=O)Nc2nc4ccccc4s2)CCC3)ccc1OCCCOc1cccc2cccnc12 [Example 46]
310 | Cc1ccc(-c2sc(-c3ccc4c(c3)N(C(=O)Nc3nc5ccccc5s3)CCO4)nc2C(=O)O)cc1 [Example 64, 2-(4-(benzo[d]thiazol-2-ylcarbamoyl)-3,4-dihydro-2H-benzo[b][1,4]oxazin-6-yl)-5-p-tolylthiazole-4-carboxylic acid]
230 | O=C(O)c1nc(-c2ccc3c(c2)N(C(=O)Nc2nc4ccccc4s2)CCC3)sc1Oc1ccc(F)cc1 [Example 65, 2-(1-(benzo[d]thiazol-2-ylcarbamoyl)-1,2,3,4-tetrahydroquinolin-7-yl)-5-(4-fluorophenoxy)thiazole-4-carboxylic acid]
110 | COc1ccc(-c2sc(-c3ccc4c(c3)N(C(=O)Nc3nc5ccccc5s3)CCO4)nc2C(=O)O)cc1 [Example 66, 2-(4-(benzo[d]thiazol-2-ylcarbamoyl)-3,4-dihydro-2H-benzo[b][1,4]oxazin-6-yl)-5-(4-methoxyphenyl)thiazole-4-carboxylic acid]
200 | COc1cccc(-c2sc(-c3ccc4c(c3)N(C(=O)Nc3nc5ccccc5s3)CCO4)nc2C(=O)O)c1 [Example 67, 2-(4-(benzo[d]thiazol-2-ylcarbamoyl)-3,4-dihydro-2H-benzo[b][1,4]oxazin-6-yl)-5-(3-methoxyphenyl)thiazole-4-carboxylic acid]
680 | COc1ccc(Oc2sc(-c3ccc4c(c3)N(C(=O)Nc3nc5ccccc5s3)CCO4)nc2C(=O)O)cc1 [Example 69, 2-(4-(benzo[d]thiazol-2-ylcarbamoyl)-3,4-dihydro-2H-benzo[b][1,4]oxazin-6-yl)-5-(4-methoxyphenoxy)thiazole-4-carboxylic acid]
10000 | NC(=O)c1nc(-c2ccc3c(c2)N(C(=O)Nc2nc4ccccc4s2)CCC3)sc1Oc1ccc(F)cc1 [Example 70, 2-(1-(benzo[d]thiazol-2-ylcarbamoyl)-1,2,3,4-tetrahydroquinolin-7-yl)-5-{4-fluorophenoxy)thiazole-4-carboxamide]
10100 | COc1ccc(-c2sc(-c3ccc4c(c3)N(C(=O)Nc3nc5ccc(F)cc5s3)CCC4)nc2C(=O)O)cc1 [Example 72, 2-(1-(6-fluorobenzo[d]thiazol-2-ylcarbamoyl)-1,2,3,4-tetrahydroquinolin-7-yl)-5-(4-methoxyphenyl)thiazole-4-carboxylic acid]
8 | O=C(O)c1nc(-c2ccc3c(c2)N(C(=O)Nc2nc4ccccc4s2)CCO3)sc1CCCSc1ccncc1 [Example 73, 2-(4-(benzo[d]thiazol-2-ylcarbamoyl)-3,4-dihydro-2H-benzo[b][1,4]oxazin-6-yl)-5-(3-(pyridin-4-ylthio)propyl)thiazole-4-carboxylic acid]
390 | CN(CCOc1ccccc1)c1sc(-c2ccc3c(c2)N(C(=O)Nc2nc4ccccc4s2)CCO3)nc1C(=O)O [Example 76, 2-(4-(benzo[d]thiazol-2-ylcarbamoyl)-3,4-dihydro-2H-benzo[b][1,4]oxazin-6-yl)-5-(methyl(2-phenoxyethyl)amino)thiazole-4-carboxylic acid]
120 | O=C(O)c1nc(-c2ccc3c(c2)N(C(=O)Nc2nc4ccccc4s2)CCO3)sc1CCCCc1ccccc1 [Example 77, 2-(4-(benzo[d]thiazol-2-ylcarbamoyl)-3,4-dihydro-2H-benzo[b][1,4]oxazin-6-yl)-5-(4-phenylbutyl)thiazole-4-carboxylic acid]
0.6 | O=C(O)c1nc(-c2ccc3c(c2)N(C(=O)Nc2nc4ccccc4s2)CCC3)sc1CCCOc1ccccc1 [Example 78, 2-(1-(benzo[d]thiazol-2-ylcarbamoyl)-1,2,3,4-tetrahydroquinolin-7-yl)-5-(3-phenoxypropyl)thiazole-4-carboxylic acid]
0.7 | Nc1cccc(OCCCc2sc(-c3ccc4c(c3)N(C(=O)Nc3nc5ccccc5s3)CCC4)nc2C(=O)O)c1 [Example 82, 5-(3-(3-aminophenoxy)propyl)-2-(1-(benzo[d]thiazol-2-ylcarbamoyl)-1,2,3,4-tetrahydroquinolin-7-yl)thiazole-4-carboxylic acid]
5 | NCc1ccc(OCCCc2sc(-c3ccc4c(c3)N(C(=O)Nc3nc5ccccc5s3)CCO4)nc2C(=O)O)cc1 [Example 83, 5-(3-(4-(aminomethyl)phenoxy)propyl)-2-(4-(benzo[d]thiazol-2-ylcarbamoyl)-3,4-dihydro-2H-benzo[b][1,4]oxazin-6-yl)thiazole-4-carboxylic acid]
65 | O=C(O)c1nc(-c2ccc3c(c2)N(C(=O)Nc2nc4ccccc4s2)CCO3)ccc1OCCCc1ccccc1 [Example 88, 6-(4-(benzo[d]thiazol-2-ylcarbamoyl)-3,4-dihydro-2H-benzo[b][1,4]oxazin-6-yl)-3-(3-phenylpropoxy)picolinic acid]
235 | O=C(O)c1nc(-c2ccc3c(c2)N(C(=O)Nc2cc4ccccn4n2)CCO3)ccc1OCCCc1ccccc1 [Example 89, 3-(3-phenylpropoxy)-6-(4-(pyrazolo[1,5-a]pyridin-2-ylcarbamoyl)-3,4-dihydro-2H-benzo[b][1,4]oxazin-6-yl)picolinic acid]
140 | CS(=O)(=O)NC(=O)c1nc(-c2ccc3c(c2)N(C(=O)Nc2nc4ccccc4s2)CCO3)ccc1OCCCc1ccccc1 [Example 91, N-(benzo[d]thiazol-2-yl)-6-(6-(methylsulfonylcarbamoyl)-5-(3-phenylpropoxy)pyridin-2-yl)-2H-benzo[b][1,4]oxazin-4(3H)-carboxamide]
40 | O=C(O)c1nc(-c2ccc3c(c2)N(C(=O)Nc2nc4ccccc4s2)CCC3)sc1Oc1ccc(-n2ncc3cncnc32)cc1 [Example 93, 5-(4-(1H-pyrazolo[3,4-d]pyrimidin-1-yl)phenoxy)-2-(1-(benzo[d]thiazol-2-ylcarbamoyl)-1,2,3,4-tetrahydroquinolin-7-yl)thiazole 4-carboxylic acid]

SMILES | IC50 [nM]
CC(C)(C)OC(=O)Nc1ccc(OCCCc2sc(-c3ccc4c(c3)N(C(=O)Nc3nc5ccccc5s3)CCC4)nc2C(=O)O)cc1 [Example 85, 2-(1-(benzo[d]thiazol-2-ylcarbamoyl)-1,2,3,4-tetrahydroquinolin-7-yl)-5-(3-(4-(tert-butoxycarbonylamino)phenoxy)propyl)thiazole-4-carboxylic acid] | 0.5
